# Experimental data reported in patent US20100075907A1, “NEUROMEDIN U RECEPTOR AGONISTS AND USES THEREOF” (priority 2006, published 2010).
# Starred links: 1 amine or outer side, 2 acyl side, 3 side chain; linkers in the order of their positions; H or OH if unused. Non-standard residues stand in square brackets, D forms with d. Residues, ends and D or L forms follow the SMILES beside them. *: point of attachment. X1 = CC(C)CCC[C@@H](C)[C@H]1CC[C@H]2[C@@H]3CC=C4C[C@@H](OC(=O)C*)CC[C@]4(C)[C@H]3CC[C@]12C; X2 = CCN1C(=O)CC(SC[C@H](NC(C)=O)C(=O)NCCCOCCOCCOCCCN*)C1=O; Succinimide(1-Et,3-yl) = CCN1C(=O)CC(*)C1=O; Suc = O=C(CCC(=O)[*:2])[*:1]
# Tests used:
# Mouse NMUR1-CTG = biological target: T1, Mouse NMUR1-CTG (Mus musculus, UniProt O55040); experiment: FLIPR calcium mobilization assay, mouse NMUR1-CTG; type: cell-based; parameters: expressed in transfected cells; host or cells: FLP-In CHO or HEK-293 FLP-In cells (pcDNA5); conditions: for IC50: functional data; for EC50: FLIPR
# T1 sequence (O55040 1-428): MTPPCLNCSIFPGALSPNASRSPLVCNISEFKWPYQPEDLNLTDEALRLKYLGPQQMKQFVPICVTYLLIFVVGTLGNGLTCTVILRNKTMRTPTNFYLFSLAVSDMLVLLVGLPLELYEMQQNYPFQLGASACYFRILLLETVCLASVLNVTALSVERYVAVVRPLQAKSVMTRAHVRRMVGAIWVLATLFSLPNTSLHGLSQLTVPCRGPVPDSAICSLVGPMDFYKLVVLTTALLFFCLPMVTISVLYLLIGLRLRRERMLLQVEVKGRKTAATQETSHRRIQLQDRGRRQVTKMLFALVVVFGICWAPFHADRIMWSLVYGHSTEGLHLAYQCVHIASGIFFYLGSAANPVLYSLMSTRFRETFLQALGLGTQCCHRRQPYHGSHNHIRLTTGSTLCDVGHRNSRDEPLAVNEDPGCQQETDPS
# Text: (§1) Human, mouse or rat cDNAs encoding NMUR1 or NMUR2 (as described in Howard et al. Nature 406: 70-74 (2000) were subcloned in pcDNA5 (Invitrogen) and transfected into FLP-In CHO cells and HEK-293 FLP-In cells purchased from Invitrogen (Carlsbad, Calif.) using lipofectamine (Invitrogen). The Flp-In system allows integration and expression of a particular gene of interest at a specific genomic location utilizing the Flp recombinase from yeast. The transfected cells were selected by growth in medium containing 200 μg/mL hygromycin (Invitrogen). Populations were frozen at early passage numbers, and these stocks were used for further studies. Stable clones that expressed the mRNAs were identified functionally by FLIPR as well as by RT-PCR. […] Two different rodent NMUR1 cell lines were thus generated: one with the codon as predicted from the genomic databases and another cell line with an engineered methionine (ATG) as the start codon. Additionally, stable cell lines expressing the human receptors were generated in HEK-293/aeq17 cells which stably express the aequorin gene under the CMV promoter. The human NMUR2 cDNA was cloned into pcDNA3.1 and human NMUR1 was subcloned into pIRES-puro (Clontech, Mountain View, Calif.), after transfection cells were selected in media containing G418 and either hygromycin (NMUR2) or puromycin (NMUR1).
# (§2) The NMU receptors signal primarily through Gαq/11 proteins; therefore calcium mobilization assays can be utilized for functional activity.
# (§3) Stable cell lines expressing human and or rodent NMUR1 or human NMUR2 receptors were plated at a density of 12,000 cells per well overnight on poly-lysine coated 384-well black-walled plates. The following day, the media was removed from the plates and the cells were subsequently loaded with Fluo-3 (Molecular Probes), a calcium sensitive dye, diluted in FLIPR buffer (1× Hank's buffered saline containing 20 mM HEPES, 0.1% BSA, 2.5 mM probenecid (Sigma) and 1.6 mM TR40). All reagents are from Invitrogen unless otherwise noted. Peptide stocks were resuspended in DMSO at a stock concentration of 2 mM and diluted in FLIPR buffer on the day of the experiment to a 4 μM working stock solution.
# (§4) After a 90 minute incubation at room-temperature, cell plates were loaded onto a FLIPR (Molecular Devices) to monitor cellular fluorescence (excitation=488 nm; emission=540 nm) before and after compound/peptide addition. Eight to twelve point dose responses were tested on NMUR-expressing cell lines using FLIPR with 1 μM peptide as the highest dose. The response after peptide addition was taken as the maximum fluorescence units minus the fluorescence immediately prior to stimulation for each well. EC50 values were calculated using GraphPad Prism (San Diego, Calif.) software.
# (§5) In vitro responses of Neuromedin U receptor agonists (NMU1 to NMU25) in the FLIPR assay for human (Table 3), mouse (Table 4) and rat (Table 5) NMUR1 and NMUR2. EC50s are reported in nM values. Percent activity refers to the maximum response at 1 μM compared to the hNMU-25 response at the same concentration. NT=not tested.
# rat NMUR1-ATG = biological target: T2, rat NMUR1-ATG (Rattus norvegicus, UniProt Q9JJI5); experiment: FLIPR calcium mobilization assay, rat NMUR1-ATG; type: cell-based; parameters: expressed in transfected cells; host or cells: FLP-In CHO or HEK-293 FLP-In cells (pcDNA5); conditions: for EC50: FLIPR
# T2 sequence (Q9JJI5 1-425): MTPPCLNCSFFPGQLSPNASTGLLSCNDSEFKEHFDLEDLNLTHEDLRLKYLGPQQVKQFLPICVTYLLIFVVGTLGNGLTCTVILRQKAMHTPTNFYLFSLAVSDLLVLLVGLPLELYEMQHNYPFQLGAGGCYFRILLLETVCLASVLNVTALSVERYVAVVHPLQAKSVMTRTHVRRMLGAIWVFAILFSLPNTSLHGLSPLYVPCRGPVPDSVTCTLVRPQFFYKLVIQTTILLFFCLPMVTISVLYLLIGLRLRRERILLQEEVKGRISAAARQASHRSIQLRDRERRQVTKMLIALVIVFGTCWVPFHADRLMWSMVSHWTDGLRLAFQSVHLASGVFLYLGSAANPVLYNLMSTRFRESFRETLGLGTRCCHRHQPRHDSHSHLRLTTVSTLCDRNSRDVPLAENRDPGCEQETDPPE
# Text: as §1, §2, §3, §4, §5
# [1] = functional, mouse R1-CTG, relative to native hNMU responses
# [2] = functional, rat R1-ATG, relative to native hNMU responses
# [3] = maximum response at 1 μM compared to hNMU-25, mouse NMUR1-CTG
# [4] = maximum response at 1 μM compared to hNMU-25, rat NMUR1-ATG
molecule,measurement,setting,value
CC(C)C[C@@H](NC(=O)[C@H](Cc1ccccc1)NC(=O)[C@H](Cc1ccc(O)cc1)NC(=O)CNC(=O)[C@H](CCCNC(=N)N)NC(=O)[C@H](CO)NC(=O)[C@H](CCC(N)=O)NC(=O)[C@H](CO)NC(=O)[C@H](C)NC(=O)[C@H](Cc1ccccc1)NC(=O)[C@@H]1CCCN1C(=O)[C@H](CO)NC(=O)[C@H](CCC(N)=O)NC(=O)[C@H](Cc1ccccc1)NC(=O)[C@H](CCC(=O)O)NC(=O)[C@H](CCC(=O)O)NC(=O)[C@H](CC(=O)O)NC(=O)[C@@H](NC(=O)[C@H](CCCNC(=N)N)NC(=O)[C@@H](N)Cc1ccccc1)C(C)C)C(=O)N[C@@H](Cc1c[nH]c2ccccc12)C(=O)N[C@@H](CCCNC(=N)N)C(=O)N1CCC[C@H]1C(=O)N[C@@H](CCCNC(=N)N)C(=O)N[C@@H](CC(N)=O)C(N)=O [Agonist H] (H-FRVDEEFQSPFASQSRGYF[dL]WRPRN-NH2; N-terminus assumed),IC50,Mouse NMUR1-CTG; mouse R1-CTG,66 nM
same,% Activity,Mouse NMUR1-CTG; [1],77%
same,IC50,"rat NMUR1-ATG; functional data, rat R1-ATG",31.1 nM
same,% Activity,rat NMUR1-ATG; [2],95%
"CCN1C(=O)CC(SC[C@H](NC(C)=O)C(=O)NCC(=O)N[C@@H](Cc2ccc(O)cc2)C(=O)N[C@@H](Cc2ccccc2)C(=O)N[C@@H](CC(C)C)C(=O)N[C@@H](Cc2ccccc2)C(=O)N[C@@H](CCCNC(=N)N)C(=O)N2CCC[C@H]2C(=O)N[C@@H](CCCNC(=N)N)C(=O)N[C@@H](CC(N)=O)C(N)=O)C1=O (stereo partly shown) [NMU6] (Ac-C(Succinimide(1-Et,3-yl))GYFLFRPRN-NH2)",% Activity,Mouse NMUR1-CTG; [3],100%
same,EC50,rat NMUR1-ATG; rat NMUR1-ATG,1 nM
same,% Activity,rat NMUR1-ATG; [4],100%
"CCN1C(=O)CC(SC[C@H](NC(C)=O)C(=O)N[C@@H](Cc2ccccc2)C(=O)N[C@@H](CCCNC(=N)N)C(=O)N[C@H](C(=O)N[C@@H](CC(=O)O)C(=O)N[C@@H](CCC(=O)O)C(=O)N[C@@H](CCC(=O)O)C(=O)N[C@@H](Cc2ccccc2)C(=O)N[C@@H](CCC(N)=O)C(=O)N[C@@H](CO)C(=O)N2CCC[C@H]2C(=O)N[C@@H](Cc2ccccc2)C(=O)N[C@@H](C)C(=O)N[C@@H](CO)C(=O)N[C@@H](CCC(N)=O)C(=O)N[C@@H](CO)C(=O)N[C@@H](CCCNC(=N)N)C(=O)NCC(=O)N[C@@H](Cc2ccc(O)cc2)C(=O)N[C@@H](Cc2ccccc2)C(=O)N[C@@H](CC(C)C)C(=O)N[C@@H](Cc2ccccc2)C(=O)N[C@@H](CCCNC(=N)N)C(=O)N2CCC[C@H]2C(=O)N[C@@H](CCCNC(=N)N)C(=O)N[C@@H](CC(N)=O)C(N)=O)C(C)C)C1=O (stereo partly shown) [NMU8] (Ac-C(Succinimide(1-Et,3-yl))FRVDEEFQSPFASQSRGYFLFRPRN-NH2)",% Activity,Mouse NMUR1-CTG; [3],100%
same,% Activity,rat NMUR1-ATG; [4],97.2%
CC(=O)N[C@@H](CSCC(=O)O[C@H]1CC[C@@]2(C)C(=CC[C@H]3[C@@H]4CC[C@H]([C@H](C)CCCC(C)C)[C@@]4(C)CC[C@@H]32)C1)C(=O)NCC(=O)N[C@@H](Cc1ccc(O)cc1)C(=O)N[C@@H](Cc1ccccc1)C(=O)N[C@@H](CC(C)C)C(=O)N[C@@H](Cc1ccccc1)C(=O)N[C@@H](CCCNC(=N)N)C(=O)N1CCC[C@H]1C(=O)N[C@@H](CCCNC(=N)N)C(=O)N[C@@H](CC(N)=O)C(N)=O [NMU11] (Ac-C(X1)GYFLFRPRN-NH2),% Activity,Mouse NMUR1-CTG; [3],65.0%
same,% Activity,rat NMUR1-ATG; [4],50.9%
"CCN1C(=O)CC(SC[C@H](NC(C)=O)C(=O)N[C@@H](Cc2ccccc2)C(=O)N[C@@H](CCCNC(=N)N)C(=O)N[C@H](C(=O)N[C@@H](CC(=O)O)C(=O)N[C@@H](CCC(=O)O)C(=O)N[C@@H](CCC(=O)O)C(=O)N[C@@H](Cc2ccccc2)C(=O)N[C@@H](CCC(N)=O)C(=O)N[C@@H](CO)C(=O)N2CCC[C@H]2C(=O)N[C@@H](Cc2ccccc2)C(=O)N[C@@H](C)C(=O)N[C@@H](CO)C(=O)N[C@@H](CCC(N)=O)C(=O)N[C@@H](CO)C(=O)N[C@@H](CCCNC(=N)N)C(=O)NCC(=O)N[C@@H](Cc2ccc(O)cc2)C(=O)N[C@@H](Cc2ccccc2)C(=O)N[C@H](C)C(=O)N[C@@H](Cc2c[nH]c3ccccc23)C(=O)N[C@@H](CCCNC(=N)N)C(=O)N2CCC[C@H]2C(=O)N[C@@H](CCCNC(=N)N)C(=O)N[C@@H](CC(N)=O)C(N)=O)C(C)C)C1=O (stereo partly shown) [NMU13] (Ac-C(Succinimide(1-Et,3-yl))FRVDEEFQSPFASQSRGYF[dA]WRPRN-NH2)",EC50,Mouse NMUR1-CTG; mouse NMUR1-CTG,141 nM
same,IC50,Mouse NMUR1-CTG; mouse R1-CTG,14 nM
same,% Activity,Mouse NMUR1-CTG; [1],88%
same,% Activity,Mouse NMUR1-CTG; [3],73.6%
same,% Activity,rat NMUR1-ATG; [2],92%
same,% Activity,rat NMUR1-ATG; [4],100%
"CCN1C(=O)CC(SC[C@H](NC(C)=O)C(=O)NCCCOCCOCCOCCCNC(=O)CCC(=O)N[C@@H](Cc2ccccc2)C(=O)N[C@@H](CC(C)C)C(=O)N[C@@H](Cc2ccccc2)C(=O)N[C@@H](CCCNC(=N)N)C(=O)N2CCC[C@H]2C(=O)N[C@@H](CCCNC(=N)N)C(=O)N[C@@H](CC(N)=O)C(N)=O)C1=O (stereo partly shown) [NMU15, Ac-C1-Ttds-FLFRPRN-CONH2] ({X2-Suc}-FLFRPRN-NH2)",% Activity,Mouse NMUR1-CTG; [3],100%
same,% Activity,rat NMUR1-ATG; [4],100%
"CCN1C(=O)CC(SC[C@H](NC(C)=O)C(=O)N[C@@H](C)C(=O)N[C@@H](CO)C(=O)N[C@@H](CCC(N)=O)C(=O)N[C@@H](CO)C(=O)N[C@@H](CCCNC(=N)N)C(=O)NCC(=O)N[C@@H](Cc2ccc(O)cc2)C(=O)N[C@@H](Cc2ccccc2)C(=O)N[C@@H](CC(C)C)C(=O)N[C@@H](Cc2ccccc2)C(=O)N[C@@H](CCCNC(=N)N)C(=O)N2CCC[C@H]2C(=O)N[C@@H](CCCNC(=N)N)C(=O)N[C@@H](CC(N)=O)C(N)=O)C1=O (stereo partly shown) [NMU17] (Ac-C(Succinimide(1-Et,3-yl))ASQSRGYFLFRPRN-NH2)",EC50,Mouse NMUR1-CTG; mouse NMUR1-CTG,2.9 nM
same,% Activity,Mouse NMUR1-CTG; [3],116.6%
same,% Activity,rat NMUR1-ATG; [4],100%
"CCN1C(=O)CC(SC[C@H](NC(C)=O)C(=O)N[C@@H](Cc2ccccc2)C(=O)N[C@@H](CCC(N)=O)C(=O)N[C@@H](CO)C(=O)N2CCC[C@H]2C(=O)N[C@@H](Cc2ccccc2)C(=O)N[C@@H](C)C(=O)N[C@@H](CO)C(=O)N[C@@H](CCC(N)=O)C(=O)N[C@@H](CO)C(=O)N[C@@H](CCCNC(=N)N)C(=O)NCC(=O)N[C@@H](Cc2ccc(O)cc2)C(=O)N[C@@H](Cc2ccccc2)C(=O)N[C@@H](CC(C)C)C(=O)N[C@@H](Cc2ccccc2)C(=O)N[C@@H](CCCNC(=N)N)C(=O)N2CCC[C@H]2C(=O)N[C@@H](CCCNC(=N)N)C(=O)N[C@@H](CC(N)=O)C(N)=O)C1=O (stereo partly shown) [NMU19] (Ac-C(Succinimide(1-Et,3-yl))FQSPFASQSRGYFLFRPRN-NH2)",% Activity,Mouse NMUR1-CTG; [3],110.8%
same,% Activity,rat NMUR1-ATG; [4],100%
Ac-C2FRVDEEFQSPFASQSRGYFLFRPRN-CONH2 [NMU9] ({Ac-C(PEG 40 kDa)}-FRVDEEFQSPFASQSRGYFLFRPRN-NH2) [C2 = Cys(PEG)240 kDa from Nektar (mPEG2-MAL-40 k)],EC50,rat NMUR1-ATG; rat NMUR1-ATG,9.7 nM
